Measurements taken from patent US11485719B2, “Water soluble 3-ketocoumarins” (priority 2017, dated 2022).

Tests used:
[1] = Reactivity test, water based clear formulation (FT-IR photopolymerization); conditions: 3% wt photoinitiator + 3% wt triethanolamine in UCECOAT7200/Ebecryl 350 99:1
Protocol: The photopolymerizable compositions for the test were prepared dissolving the photoinitiators and the co-initiator, triethanolamine, at a concentration of 3% by weight (wt) each in a mixture 99:1 wt of UCECOAT7200 and Ebecryl 350 (Allnex). The reference compound Omnirad 819 DW (45% wt in water) (COMP-1) was dissolved at a concentration of 6.6% by weight to have the same amount of active content.
(§1) The photopolymerizable compositions placed in the sample lodgment of a FT-IR (FT-IR 430-Jasco), were exposed to two different sources: • 1) a LED source (400 nm) located at a distance of 25 mm from the sample and at an angle of 30°. (Table 1) • 2) A Mercury lamp (160 W) located at a distance of 65 mm from the sample and at an angle of 30°. (Table 2)
(§2) IR spectra were acquired at constant time intervals during the photopolymerization and the reduction over the time of the area of the peaks at 1408 and 810 cm^−1 assigned to the acrylic double bonds was determined using the IR software. This allows quantifying the degree of polymerization and therefore the efficiency of the photoinitiator.
The results at 400 nm, expressed as % of polymerization over the time, are reported in Table 1 and the results with the Mercury lamp are reported in Table 2.

[2] = Reactivity test, water based black inkjet ink (FT-IR photopolymerization); conditions: 5.0% wt photoinitiator + 5.0% wt triethanolamine in water based black ink
Protocol: The photopolymerizable compositions for the test were prepared by dissolving the photoinitiators and the co-initiator triethanolamine at a concentration of 5.0% wt each in a water based black ink for ink-jet printing. The reference compound Omnirad 819 DW (45% wt in water) (COMP-1) was dissolved at a concentration of 11% by weight to have the same amount of active content.
as §1, with “(Table 3)” for “(Table 1)”, “(Table 4)” for “(Table 2)”
as §2, with “1408 cm^−1” for “1408”
The results at 400 nm, expressed as % of polymerization over the time, are reported in Table 3 and the results with the Mercury lamp are reported in Table 4.

| SMILES | % of polymerization over the time ([1]; LED source 400 nm, 0.5 sec) | % of polymerization over the time ([1]; LED source 400 nm, 2 sec) | % of polymerization over the time ([1]; Mercury lamp 160 W, 0.2 sec) | % of polymerization over the time ([1]; Mercury lamp 160 W, 1 sec) | % of polymerization over the time ([2]; LED source 400 nm, 0.5 sec) | % of polymerization over the time ([2]; LED source 400 nm, 2 sec) | % of polymerization over the time ([2]; Mercury lamp 160 W, 0.2 sec) | % of polymerization over the time ([2]; Mercury lamp 160 W, 1 sec) |
| --- | --- | --- | --- | --- | --- | --- | --- | --- |
| COc1cc(OC)c2cc(C(=O)c3ccc(CCC(=O)O)cc3)c(=O)oc2c1 [Example 8] | 7% | 15% | 9% | 16% | – | – | – | – |
| COc1cc(OC)c2cc(C(=O)c3ccc(CC[N+]4(C)CCCCC4)cc3)c(=O)oc2c1.[Cl-] [Example 14] | 23% | 27% | 15% | 23% | 38% | 62% | 67% | 89% |
